Experimental data taken from patent US3935229A, “Esters of 2-[(4-quinolyl)amino]-benzoic acids” (Synthelabo, priority 1973, dated 1976).
Structures can show the parent of a compound that is named as a salt.

Legend:
[1] = tested on: pain induced, in Swiss mice, by the intraperitoneal injection of phenylquinone; test: Siegmund test (analgesic effect against pain induced by intraperitoneal phenylquinone); type: in vivo; conditions: for ED50: Mus musculus, po, read-out: Siegmund test AD50 (50% active dose), mice, oral administration
From the text: 1. Effect against pain induced, in Swiss mice, by the intraperitoneal injection of phenylquinone, in accordance with the experimental procedure of Siegmund (Proc. Soc. Exp. Biol. Med., 1957, 95, 729), modified by Cheymol (C.R. Soc. Biol., 1963, 157, 521) and Brittain (Nature, London, 1963, […], 895).

[2] = tested on: heated plate test, Swiss mice; test: Heated plate test (plate heated by acetone vapours; analgesic effects of the central type); conditions: oral
[3] = tested on: carragenine-induced oedema of the paw, Sherman rats; test: Carragenine-induced oedema test (oedema of the paw); type: in vivo; conditions: Rattus norvegicus, po, read-out: Carragenine-induced oedema test AD (AD40 = 40% active dose)
[4] = tested on: mice of both sexes, of the Swiss strain; test: in vivo; conditions: mice, oral administration
Procedure: Tests were carried out on mice of both sexes, of the Swiss strain, of average weight 20 g. (± 2g.).

With `O=C(OCCN1CCN(c2cccc(C(F)(F)F)c2)CC1)c1ccccc1Nc1ccnc2cc(C(F)(F)F)ccc12` [Compound 73-017, 2-(4'-m-trifluoromethylphenyl-piperazino)-ethyl 2-(7'-trifluoromethyl-4'-quinolyl-amino)-benzoate dihydrochloride] the ED50 [1] was 4 mg/kg, the “analgesic effects of the peripheral type (Siegmund test), compared with amidopyrine and glafenine” value ([1]; mice, oral, versus amidopyrine and glafenine) was “generally much more active” and the “analgesic effects of the central type (heated plate test), compared with amidopyrine” value ([2]; versus amidopyrine) was “greater than that of amidopyrine”. The “extent of the greater activity than amidopyrine in the heated plate test” value ([2]; versus amidopyrine) was “considerable”, the ED40 [3] was 60 mg/kg and the “Acute toxicity LD50 (50% lethal dose)” value ([4]; dihydrochloride) was 1,500 mg/kg.
`O=C(OCC(O)CO)c1ccccc1Nc1ccnc2cc(Cl)ccc12` (stereo not shown) [Glafenine, reference compound] was tested, and the ED50 [1] was 50 mg/kg, the “central component of the analgesic effect (heated plate test)” value [2] was “much less strong” and the ED40 [3] was 30 mg/kg. The “Acute toxicity LD50 (50% lethal dose)” value [4] was 3,500 mg/kg.
